Reference: article PMC9022229, “Induction of Paraptosis by Cyclometalated Iridium Complex-Peptide Hybrids and CGP37157 via a Mitochondrial Ca^2+ Overload Triggered by Membrane Fusion between Mitochondria and the Endoplasmic Reticulum” (Biochemistry, 2022)
Residues, ends and D or L forms follow the SMILES beside them. *: point of attachment. X1 = O=C(COc1ccc(-c2ccccn2)cc1)NCCCCCCCCN*

Tests used:
Format in all cases: cell-based
[1] = test system: MFN1- and/or MFN2-KD Jurkat cells; assay: MTT assay of MFN1- and/or MFN2-KD Jurkat cells; details: siRNA 10 nM, three independent experiments
Procedure: The roles of MFNs in the cell death induced by 4 and CGP37157 were examined by using small interfering RNA (siRNA) for MFN1 and MFN2 to knock down (KD) these proteins. […] The cytotoxicity of 4 and CGP37157 against MFN1- and/or MFN2-KD Jurkat cells was evaluated by MTT assays. […] The effect of a negative control siRNA (NCsiRNA) on the expression levels of MFNs and the cell viability of Jurkat cells was negligible, implying that MFNs are […] to the paraptosis induced by 4 and CGP37157. It should be noted that the treatment with siRNA at 5 nM for 72 h was toxic against Jurkat cells in the presence of 4 and CGP37157, although the efficiency of knockdown of these proteins by siRNA could be improved by increasing the incubation time, as shown in Figure S11.
To a solution of transfection reagent (INTERFERin, 5 μL) in OPTI-MEM (0.3 mL) in a 1.5 mL Eppendorf tube was added siRNA (10 μM, 1 or 2 μL) in H2O, and the resulting solution was allowed to stand for 15 min at room temperature. The resulting solution was then added to Jurkat cells (2.0 × 10^5 cells/mL, 1.5 mL) in 10% FBS/RPMI 1640 medium that had been seeded on a 12-well plate and incubated overnight at 37 °C under 5% CO2 (the final concentration of siRNA was 5 or 10 nM), and the resulting solution was incubated for 48 or 72 h at 37 °C under 5% CO2. The cells were collected by centrifugation (2000 rpm, 3 min, 4 °C), and the expression levels of MFNs were evaluated by Western blot analysis as described above. The cytotoxicity of 4 (3 or 5 μM), CGP37157 (50 or 100 μM), and celastrol (1 μM) against MFNs-KD Jurkat cells was evaluated by MTT assays as described above.

[2] = test system: Jurkat cells; assay: TEM analysis of cytoplasmic vacuolization
Procedure: The morphological changes in Jurkat cells induced by CGP37157 (Figure 3B) were similar to those induced by 4 (Figure 1B) and confirmed in detail by TEM (transmission electron microscopy). Jurkat cells were treated with CGP37157 (100 μM) for 12 h, prefixed with glutaraldehyde and postfixed with osmium tetroxide (OsO4), and included in Poly 812 resin. The resulting samples were sliced and then observed by TEM. […] Similar TEM images were reported with respect to paraptosis-inducing natural compounds by some research groups: (i) paraptosis in MDA-MB 435S cells,[17] HeLa cells,[18] and Jurkat cells (Figure 4d and in our previous publications)[56]−[58] induced by celastrol, (ii) paraptosis in HeLa cells induced by 8-p-hydroxybenzoyl tovarol,[23] and (iii) paraptosis in A2780 cells and SKOV-3 cells induced by morusin.[22] Therefore, we believe that Jurkat cells undergo vacuolization in the paraptotic processes induced by 4 and CGP37157, as well as celastrol.
In a 1.5 mL Eppendorf tube, Jurkat cells (3.0 × 10^6 cells) were incubated with 4 (5 μM for 3 h), CGP37157 (100 μM for 12 h), and celastrol (1 μM for 24 h) in 10% FBS/RPMI 1640 medium at 37 °C under 5% CO2. After centrifugation (2000 rpm, 3 min, 4 °C), the cells were washed twice with PBS, prefixed with glutaraldehyde (2.5%) at 4 °C for 40 min, and then washed twice with PBS. Osmium tetroxide (1%) was used for postfixation, and the solution was incubated at 4 °C for 30 min. The cells were washed with PBS, included in an agarose gel, and dehydrated by using 50–100% and anhydrous EtOH. The cells were embedded into Poly 812 resin (Nisshin EM Co. Ltd.) at 60 °C for 3 days. The resin was sliced with a glass knife (150 nm thickness) on an ultramicrotome (EM UC6, Leica), and the samples were stained with EM stainer (Nisshin EM Co. Ltd.) and observed on TEM instrument (H-7650, Hitachi) with electron irradiation at 100 kV.

[3] = test system: mitofusin 1 (MFN1); assay: Western blot analysis of MFN1 in Jurkat cells; details: for MFN1 band intensity relative to absence of compound: Figure S8B, 12 h
Procedure: In a 1.5 mL Eppendorf tube, Jurkat cells (1.0 × 10^6 cells) were incubated in the presence of 4 ([…]), CGP37157 (100 μM for 0–24 h or 0–100 μM for 12 h), and celastrol (0–10 μM for 24 h or 1 μM for 0–24 h) at 37 °C under 5% CO2. After the cells had been washed twice with PBS, the proteins were extracted by using RIPA buffer (Nacalai Tesque) and quantified using a Pierce BCA Protein Assay Kit (Thermo Scientific). Proteins (7.5 μg/well) for MFNs and DRP1 and proteins (5.0 μg/well) for GAPDH were used for sodium dodecyl sulfate–polyacrylamide gel electrophoresis (SDS–PAGE) (7.5% for MFNs and DRP1 and 10% for GAPDH) (Bio-Rad). After SDS–PAGE, the proteins were transferred to a polyvinylidene fluoride membrane (Merck Millipore) by using a semi dry blotter (Bio-Rad). The membrane was blocked with Blocking One solution (Nacalai Tesque) for 30 min at room temperature. After being blocked, the membrane was washed three times with 1× TBST and treated with primary antibodies overnight (at a dilution of 1/1000 for MFNs and DRP1 or 1/2000 for GAPDH) in a signal enhancer HIKARI-solution A (Nacalai Tesque). The membrane was washed three times with 1× TBST and treated with the anti-mouse or anti-rabbit IgG HRP-conjugated secondary antibody (at a dilution of 1/4000 for MFNs and DRP1 or 1/10000 for GAPDH) in 1× TBST for 60 min at room temperature. The protein signal was spotted with a Chemi-Lumi One Ultra solution (Nacalai Tesque) using the ChemiDoc MP system (Bio-Rad). […]

SMILES: NCCCC[C@H](NC(=O)[C@H](CCCCN)NC(=O)[C@@H](N)CCCCN)C(=O)NCC(=O)NCC(=O)NCCCCCCCCNC(=O)COc1ccc(-c2ccccn2)cc1 [compound 4] (H-KKKGG-X1)
- Effect of knockdown of MFNs on cell death induced by the compound ([1]; 4 at 3 or 5 µM, 1 h): weakly inhibited
- Morphological change by TEM ([2]; 4 at 5 μM, 3 h): cytoplasmic vacuolization

SMILES: O=C1CSC(c2ccccc2Cl)c2cc(Cl)ccc2N1 (stereo not shown) [CGP37157]
- Effect of knockdown of MFNs on cell death induced by the compound ([1]; CGP37157 50 or 100 µM, 12 h): weakly inhibited
- Morphological change by TEM ([2]; CGP37157 100 μM, 12 h): cytoplasmic vacuolization
- Expression level of MFN1 (Figure 11B) ([3]; CGP37157 100 μM, 1–6 h): weakly changed
- MFN1 band intensity relative to absence of compound ([3]; CGP37157 10 µM): 1.1
- MFN1 band intensity relative to absence of compound ([3]; CGP37157 20 µM): 1.1
- MFN1 band intensity relative to absence of compound ([3]; CGP37157 50 µM): 0.92
- MFN1 band intensity relative to absence of compound ([3]; CGP37157 80 µM): 0.80
- MFN1 band intensity relative to absence of compound ([3]; CGP37157 100 µM): 0.63
